The values below come from ChEMBL document CHEMBL4311931, “Controlling cellular distribution of drugs with permeability modifying moieties” (Medchemcomm, 2019).

Where only a bound is given, the exact number is not on record here.

In series [1] the target is T1, Histamine H3 receptor (Homo sapiens, UniProt Q9Y5N1). Kind of series: Displacement of [3H]Nalpha-methylhistamine from recombinant human histamine H3 receptor after 60 mins by scintillation counting method. For orientation: In a radioligand displacement assay an active substance lowers the binding of a labelled ligand.
Series [2] addresses T1, Histamine H3 receptor. The series can be described thus: Agonist activity at human H3 receptor expressed in CHOK1 cells incubated for 10 mins by HTRF assay. In kind it is cell-based.
For series [3], the target named is T1, Histamine H3 receptor. Kind of series: Antagonist activity at human H3 receptor expressed in CHOK1 cells incubated for 10 mins by HTRF assay. The series is classed as cell-based.
Series [4] is described as follows: Permeability of compound in 5% DMSO after 7 hrs by PAMPA. The series is classed as ADME. The note with it: read-out: permeability.

T1 sequence (Q9Y5N1 whole entry): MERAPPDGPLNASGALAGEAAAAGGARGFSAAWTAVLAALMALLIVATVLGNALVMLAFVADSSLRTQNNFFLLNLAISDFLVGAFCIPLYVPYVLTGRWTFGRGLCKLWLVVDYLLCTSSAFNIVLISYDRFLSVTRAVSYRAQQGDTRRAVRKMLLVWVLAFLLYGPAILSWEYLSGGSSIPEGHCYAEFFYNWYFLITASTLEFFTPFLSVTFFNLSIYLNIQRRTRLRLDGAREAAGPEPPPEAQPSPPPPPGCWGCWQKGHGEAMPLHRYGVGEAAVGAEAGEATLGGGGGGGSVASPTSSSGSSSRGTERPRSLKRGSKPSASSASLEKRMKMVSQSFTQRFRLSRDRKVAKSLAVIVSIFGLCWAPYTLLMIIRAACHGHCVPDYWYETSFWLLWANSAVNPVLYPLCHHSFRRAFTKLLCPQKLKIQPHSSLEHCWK

One may read the Ki as the dissociation constant of the complex between target and ligand, obtained from inhibition or displacement. The term EC50 denotes the concentration giving half of the maximal effect. Read a high EC50 as a less potent agent. As usually defined, the IC50 is the concentration at which inhibition is half-maximal. `Cc1nn(CCOCCOCCNC(=O)CCCCCC2(C)C(/C=C/C=C/C=C3/N(CCCS(=O)(=O)O)c4ccc(S(=O)(=O)O)cc4C3(C)C)=[N+](CCCS(=O)(=O)[O-])c3ccc(S(=O)(=O)O)cc32)cc1-c1ccc2cc(CCN3CCC[C@H]3C)ccc2n1` (some centres undefined): the inhibition constant (Ki) on Histamine H3 receptor [1] was found to be 1.9 nM. Further, at Histamine H3 receptor [2], the EC50 came to 88 nM. The compound further came in with an IC50 on Histamine H3 receptor [3] of 13 nM. Also, in series [4], the Papp at 7 h came out at 0.284 ×10⁻⁶ cm/s.

Take `Cc1nn(CCOCCOCCNC(=O)OC(C)(C)C)cc1-c1ccc2cc(CCN3CCC[C@H]3C)ccc2n1`: the Ki on Histamine H3 receptor [1] stood at 1.5 nM. On Histamine H3 receptor [2], this compound displayed an EC50 of over 3000 nM. The compound also displayed an IC50 against Histamine H3 receptor [3] of 41 nM. Also, the Papp at 7 h in series [4] was determined as 0.873 ×10⁻⁶ cm/s.

Consider `Cc1nn(CCOCCOCCN)cc1-c1ccc2cc(CCN3CCC[C@H]3C)ccc2n1`, for which the Ki on Histamine H3 receptor [1] worked out at 0.7 nM. Besides, the concentration giving a half-maximal response (EC50) on Histamine H3 receptor [2] is over 3000 nM. Besides, it took 1 nM to reach half-maximal inhibition at Histamine H3 receptor [3] (IC50). Moreover, the Papp at 7 h in series [4] is 0.0246 ×10⁻⁶ cm/s.

Consider `Cc1nn(CCOCCOCCNC(=O)C2C(C(=O)O)C(C(=O)O)C2C(=O)O)cc1-c1ccc2cc(CCN3CCC[C@H]3C)ccc2n1` (some centres undefined), for which the inhibitory constant (Ki) at Histamine H3 receptor [1] came out at 25.4 nM. The compound further had a concentration giving a half-maximal response (EC50) at Histamine H3 receptor [2] of over 3000 nM. The compound also yielded an IC50 on Histamine H3 receptor [3] of 150 nM. Further, the Papp at 7 h in series [4] was 0.0131 ×10⁻⁶ cm/s.

Turning to `Cc1nn(CCOCCOCCNC(=O)CS(=O)(=O)O)cc1-c1ccc2cc(CCN3CCC[C@H]3C)ccc2n1`, the Ki at Histamine H3 receptor [1] turned out to be 5.6 nM. The EC50 on Histamine H3 receptor [2] was over 3000 nM. This compound had an IC50 on Histamine H3 receptor [3] of 45 nM.
